Assay results reported in ChEMBL document CHEMBL1201862, “PubChem BioAssay data set” (2004).
Active and inactive are the calls of the source.

How the values were obtained:
Bcl-2-like protein 10 = target: T1, Bcl-2-like protein 10 (Homo sapiens, UniProt Q9HD36); experiment: displacers of TR3 peptide from Bcl-B, primary screen, selectivity assay for Bfl-1 inhibitor project, biochemical, fluorescence polarization, FITC-TR3 peptide (AID 748);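 also: fluorescence polarization from a fluorescein-labelled TR3 peptide binding purified Bcl-B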
T1 sequence (Q9HD36 whole entry): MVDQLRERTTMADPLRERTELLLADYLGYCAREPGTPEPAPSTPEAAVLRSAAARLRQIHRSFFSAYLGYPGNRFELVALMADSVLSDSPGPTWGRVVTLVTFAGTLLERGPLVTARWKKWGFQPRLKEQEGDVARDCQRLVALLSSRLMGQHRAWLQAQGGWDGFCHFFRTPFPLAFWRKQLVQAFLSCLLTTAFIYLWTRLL

Protein RecA = target: T2, Protein RecA (Mycobacterium tuberculosis, UniProt P9WHJ3); experiment: Fluorescence Cell-Free Homogeneous Dose Retest to Identify Inhibitors of RecA-Intein Splicing Activity. [Related pubchem assays (depositor defined):AID2097, AID2223, AID489010, AID492950]; format: functional
T2 sequence (P9WHJ3 whole entry): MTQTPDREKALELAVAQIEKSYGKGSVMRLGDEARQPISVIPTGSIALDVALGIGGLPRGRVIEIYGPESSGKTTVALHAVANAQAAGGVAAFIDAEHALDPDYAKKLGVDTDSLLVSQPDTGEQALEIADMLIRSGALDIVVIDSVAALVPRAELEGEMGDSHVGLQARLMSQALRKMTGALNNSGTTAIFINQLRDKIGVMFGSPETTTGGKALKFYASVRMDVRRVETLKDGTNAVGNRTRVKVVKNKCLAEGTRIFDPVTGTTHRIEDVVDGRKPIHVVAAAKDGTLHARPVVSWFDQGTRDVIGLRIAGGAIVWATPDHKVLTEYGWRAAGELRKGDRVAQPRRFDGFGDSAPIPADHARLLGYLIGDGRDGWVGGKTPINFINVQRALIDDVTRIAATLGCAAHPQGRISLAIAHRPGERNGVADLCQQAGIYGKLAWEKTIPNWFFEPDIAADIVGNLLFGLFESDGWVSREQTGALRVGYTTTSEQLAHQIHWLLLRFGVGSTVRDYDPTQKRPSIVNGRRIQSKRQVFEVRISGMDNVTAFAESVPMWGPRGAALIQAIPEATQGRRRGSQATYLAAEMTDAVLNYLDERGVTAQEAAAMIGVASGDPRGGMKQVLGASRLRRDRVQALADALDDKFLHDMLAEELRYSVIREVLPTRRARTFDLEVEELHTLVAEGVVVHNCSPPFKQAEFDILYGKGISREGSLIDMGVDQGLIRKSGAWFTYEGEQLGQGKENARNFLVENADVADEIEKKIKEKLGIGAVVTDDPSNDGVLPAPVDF

Protein skinhead-1 = target: T3, Protein skinhead-1 (Caenorhabditis elegans, UniProt P34707); format: functional
T3 sequence (P34707 whole entry): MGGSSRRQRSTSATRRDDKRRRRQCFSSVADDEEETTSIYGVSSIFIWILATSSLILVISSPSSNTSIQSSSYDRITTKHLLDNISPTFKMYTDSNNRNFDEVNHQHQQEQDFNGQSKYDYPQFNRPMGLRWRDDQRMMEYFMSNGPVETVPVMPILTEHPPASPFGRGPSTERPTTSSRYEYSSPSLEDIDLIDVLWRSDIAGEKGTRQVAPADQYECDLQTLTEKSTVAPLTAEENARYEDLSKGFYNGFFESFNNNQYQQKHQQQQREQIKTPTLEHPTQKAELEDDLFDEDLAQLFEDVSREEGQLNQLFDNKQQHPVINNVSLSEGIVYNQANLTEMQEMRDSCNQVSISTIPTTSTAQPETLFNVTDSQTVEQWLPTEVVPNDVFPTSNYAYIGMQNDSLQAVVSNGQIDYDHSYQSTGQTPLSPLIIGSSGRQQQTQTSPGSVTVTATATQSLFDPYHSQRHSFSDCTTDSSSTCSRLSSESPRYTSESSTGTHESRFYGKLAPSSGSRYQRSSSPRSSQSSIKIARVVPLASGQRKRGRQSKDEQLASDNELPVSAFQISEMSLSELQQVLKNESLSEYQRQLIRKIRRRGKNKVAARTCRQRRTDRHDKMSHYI

Nonstructural protein 1 = Nonstructural protein 1 (Influenza A virus, UniProt Q194T2); format: functional, Influenza A virus (A/California/07/2009(H1N1))
[1] = target: T4, Replicative DNA helicase DnaB (Mycobacterium tuberculosis, UniProt P9WMR3); experiment: DnaB intein splicing inhibitors, dose response, biochemical, cell-free fluorescence (AID 449749); format: functional
T4 sequence (P9WMR3 whole entry): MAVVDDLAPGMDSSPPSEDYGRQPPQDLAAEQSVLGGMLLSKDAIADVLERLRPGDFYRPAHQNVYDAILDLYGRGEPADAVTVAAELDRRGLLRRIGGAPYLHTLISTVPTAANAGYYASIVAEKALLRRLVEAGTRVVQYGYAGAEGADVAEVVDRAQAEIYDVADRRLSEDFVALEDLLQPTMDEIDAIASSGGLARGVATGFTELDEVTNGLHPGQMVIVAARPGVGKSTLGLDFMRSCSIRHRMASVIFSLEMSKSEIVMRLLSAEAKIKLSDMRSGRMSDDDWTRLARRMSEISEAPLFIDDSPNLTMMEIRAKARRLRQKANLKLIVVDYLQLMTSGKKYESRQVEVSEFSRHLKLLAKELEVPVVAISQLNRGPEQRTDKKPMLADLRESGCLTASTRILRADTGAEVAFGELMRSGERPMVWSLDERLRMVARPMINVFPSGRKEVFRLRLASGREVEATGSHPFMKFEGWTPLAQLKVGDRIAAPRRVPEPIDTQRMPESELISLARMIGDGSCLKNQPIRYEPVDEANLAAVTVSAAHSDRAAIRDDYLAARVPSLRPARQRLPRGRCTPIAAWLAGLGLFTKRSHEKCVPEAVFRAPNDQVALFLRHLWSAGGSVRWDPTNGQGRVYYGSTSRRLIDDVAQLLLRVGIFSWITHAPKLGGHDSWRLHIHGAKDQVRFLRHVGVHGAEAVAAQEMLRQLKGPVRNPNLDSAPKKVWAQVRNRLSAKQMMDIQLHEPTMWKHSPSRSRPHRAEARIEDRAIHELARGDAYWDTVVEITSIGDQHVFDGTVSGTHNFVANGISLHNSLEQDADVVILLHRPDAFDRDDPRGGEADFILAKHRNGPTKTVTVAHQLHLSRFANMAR

[2] = target: T5, Sentrin-specific protease 8 (Homo sapiens, UniProt Q96LD8); format: functional;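 also: luminescence read-out of SENP8 inhibition, dose-response confirmation following an ultra-high-throughput screen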
T5 sequence (Q96LD8 whole entry): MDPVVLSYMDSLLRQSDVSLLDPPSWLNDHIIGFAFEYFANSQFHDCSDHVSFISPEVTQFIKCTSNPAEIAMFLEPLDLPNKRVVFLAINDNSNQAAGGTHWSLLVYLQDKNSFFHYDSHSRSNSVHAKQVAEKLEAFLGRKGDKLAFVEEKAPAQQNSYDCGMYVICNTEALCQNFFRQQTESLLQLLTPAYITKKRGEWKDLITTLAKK

Sequence of Nonstructural protein 1 (Q194T2 whole entry): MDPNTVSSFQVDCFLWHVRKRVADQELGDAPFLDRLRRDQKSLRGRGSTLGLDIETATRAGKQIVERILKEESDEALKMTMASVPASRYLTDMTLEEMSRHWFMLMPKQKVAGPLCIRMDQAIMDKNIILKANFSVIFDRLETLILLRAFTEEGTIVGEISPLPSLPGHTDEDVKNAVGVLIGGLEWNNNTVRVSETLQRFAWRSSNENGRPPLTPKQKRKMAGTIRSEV

| SMILES | IC50 (Bcl-2-like protein 10) | EC50 (Protein RecA) | IC50 (Protein skinhead-1) | IC50 (Nonstructural protein 1) | AC50 [1] | IC50 [2] |
| --- | --- | --- | --- | --- | --- | --- |
| CC1CC(C)CN(C(=O)c2ccc3c(c2NCCO)C(=O)c2ccccc2C3=O)C1 (stereo not drawn) | 29.1 µM (active) | 20 µM (active) | > 100 µM (inactive) | 13 µM (active) | 14.5 µM (active) |  |
| CCC(=O)N(C1=C(NC)C(=O)c2ccccc2C1=O)C(C)C |  | 9.21 µM (active) |  |  | 24.5 µM (active) | 25 µM (active) |
